The source of these data is patent publication US9676760B2, “Fused heterocyclic compounds as ion channel modulators” (Gilead Sciences, Inc., priority 2011, dated 2017).

The structures appear in SMILES notation. pIC50: −log10 of the molar value. Read-outs that look alike come from different tables or passages of the source.

Assay type in all cases: cell-based
Data set [1] concerns the target wild-type human cardiac sodium channel, hNav1.5 (Homo sapiens, UniProt Q14524). In words: Late INa screening assay (QPatch whole cell patch clamp, HEK293). The procedure, abridged:
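HEK293 stably expressing hNav1.5 without beta subunits, recorded at 23-25° C. Late current was induced by 10 μM tefluthrin. Cells were depolarized from −120 mV to −20 mV for 250 ms at 0.1 Hz. Compounds were tested at 1 μM in extracellular solution, with baseline taken in 0Na-ECF; output is percent block of late INa.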

The target of a further data set is hERG potassium channel (Homo sapiens, UniProt Q12809). Put plainly: hERG screening assay (PatchXpress, CHO cells). Further details: hERG: unit not given here. On the procedure: Compounds were also tested for their effect to block the hERG K^+ channel.
Compounds were screened to test their activity in blocking the hERG potassium channel at AVIVA Biosciences (San Deigo, Calif., USA). The hERG channel is heterologously expressed in a CHO (Chinese Hamster Ovary) cell line. Cells were maintained with standard tissue culture procedures and stable channel expression was maintained with 500 μg/mL G418 in the culture medium. Cells were harvested for testing on the PatchXpress 7000A automated patch clamp with Accumax (Innovative Cell Technologies, San Diego, Calif.) to isolate single cells.
The following solutions were used for electrophysiological recordings. The external solution contained: 2 mM CaCl2; 2 mM MgCl2; 4 mM KCl; 150 mM NaCl; 10 mM Glucose; 10 mM HEPES (pH 7.4 with 1M NaOH; osmolarity, ˜310 mOsm).
hERG channels were activated when the voltage was first stepped to −50 mV for 300 ms from the −80 mV holding potential and then stepped to +20 mV for 5 seconds. At +20 mV the channels open and then largely inactivate, so the currents are relatively small. Upon returning to −50 mV from +20 mV, hERG currents transiently become much larger as inactivation is rapidly removed and then the channel closes. The first step to −50 mV for 300 ms was used as a baseline for measuring the peak amplitude during the step to −50 mV after channel activation. The peak tail current at −50 mV was measured both under control conditions and after addition of compound, each cell serving as its own control.
All compounds were prepared as 10 mM DMSO stocks in glass vials. Stock solutions were mixed by vigorous vortexing and sonication for about 2 minutes at room temperature. For testing, compounds were diluted in glass vials using an intermediate dilution step in pure DMSO and then further diluted to working concentrations in external solution. Dilutions were prepared no longer than 20 minutes before use.
For the electrophysiological recordings, after achieving the whole-cell configuration, cells were monitored for 90 seconds to assess stability and washed with external solution for 66 seconds. The voltage protocol described above was then applied to the cells every 12 seconds and throughout the whole procedure. Only cells with stable recording parameters and meeting specified health criteria were allowed to enter the compound addition procedure.
External solution containing 0.1% DMSO (vehicle) was applied to the cells first to establish the control peak current amplitude. After allowing the current to stabilize for 3 to 5 minutes, 1 μM and then 10 μM test compounds were applied. Each compound concentration was added 4 times and cells were kept in test solution until the effect of the compound reached steady state or for a maximum of 12 minutes. […] Washout in the external solution compartment was performed until the recovery of the current reached steady state.

Data set [2] has as its target T1, hNav 1.1 sodium channel isoform (Homo sapiens, UniProt P35498).
T1 construct: expressed in transfected cells; host or cells: HEK293, transient transfection (Qiagen Superfect)
Put plainly: hNav1.1 whole-cell voltage-clamp assay. The conditions noted are these: for inhibition at 1 µM: use-dependent block, 10 Hz, read-out: NAV1.1* UDB-10HZ.

[3] abbreviates: HEK293, % Inhibition at 1 uM, read-out: Late INa*.
The mark [4] stands for this setting: HEK293, percent block of late INa, compound at 1 μM, 10 μM Tefluthrin, read-out: Late INa 1 μM.

wild-type human cardiac sodium channel, hNav1.5, sequence (Q14524 whole entry): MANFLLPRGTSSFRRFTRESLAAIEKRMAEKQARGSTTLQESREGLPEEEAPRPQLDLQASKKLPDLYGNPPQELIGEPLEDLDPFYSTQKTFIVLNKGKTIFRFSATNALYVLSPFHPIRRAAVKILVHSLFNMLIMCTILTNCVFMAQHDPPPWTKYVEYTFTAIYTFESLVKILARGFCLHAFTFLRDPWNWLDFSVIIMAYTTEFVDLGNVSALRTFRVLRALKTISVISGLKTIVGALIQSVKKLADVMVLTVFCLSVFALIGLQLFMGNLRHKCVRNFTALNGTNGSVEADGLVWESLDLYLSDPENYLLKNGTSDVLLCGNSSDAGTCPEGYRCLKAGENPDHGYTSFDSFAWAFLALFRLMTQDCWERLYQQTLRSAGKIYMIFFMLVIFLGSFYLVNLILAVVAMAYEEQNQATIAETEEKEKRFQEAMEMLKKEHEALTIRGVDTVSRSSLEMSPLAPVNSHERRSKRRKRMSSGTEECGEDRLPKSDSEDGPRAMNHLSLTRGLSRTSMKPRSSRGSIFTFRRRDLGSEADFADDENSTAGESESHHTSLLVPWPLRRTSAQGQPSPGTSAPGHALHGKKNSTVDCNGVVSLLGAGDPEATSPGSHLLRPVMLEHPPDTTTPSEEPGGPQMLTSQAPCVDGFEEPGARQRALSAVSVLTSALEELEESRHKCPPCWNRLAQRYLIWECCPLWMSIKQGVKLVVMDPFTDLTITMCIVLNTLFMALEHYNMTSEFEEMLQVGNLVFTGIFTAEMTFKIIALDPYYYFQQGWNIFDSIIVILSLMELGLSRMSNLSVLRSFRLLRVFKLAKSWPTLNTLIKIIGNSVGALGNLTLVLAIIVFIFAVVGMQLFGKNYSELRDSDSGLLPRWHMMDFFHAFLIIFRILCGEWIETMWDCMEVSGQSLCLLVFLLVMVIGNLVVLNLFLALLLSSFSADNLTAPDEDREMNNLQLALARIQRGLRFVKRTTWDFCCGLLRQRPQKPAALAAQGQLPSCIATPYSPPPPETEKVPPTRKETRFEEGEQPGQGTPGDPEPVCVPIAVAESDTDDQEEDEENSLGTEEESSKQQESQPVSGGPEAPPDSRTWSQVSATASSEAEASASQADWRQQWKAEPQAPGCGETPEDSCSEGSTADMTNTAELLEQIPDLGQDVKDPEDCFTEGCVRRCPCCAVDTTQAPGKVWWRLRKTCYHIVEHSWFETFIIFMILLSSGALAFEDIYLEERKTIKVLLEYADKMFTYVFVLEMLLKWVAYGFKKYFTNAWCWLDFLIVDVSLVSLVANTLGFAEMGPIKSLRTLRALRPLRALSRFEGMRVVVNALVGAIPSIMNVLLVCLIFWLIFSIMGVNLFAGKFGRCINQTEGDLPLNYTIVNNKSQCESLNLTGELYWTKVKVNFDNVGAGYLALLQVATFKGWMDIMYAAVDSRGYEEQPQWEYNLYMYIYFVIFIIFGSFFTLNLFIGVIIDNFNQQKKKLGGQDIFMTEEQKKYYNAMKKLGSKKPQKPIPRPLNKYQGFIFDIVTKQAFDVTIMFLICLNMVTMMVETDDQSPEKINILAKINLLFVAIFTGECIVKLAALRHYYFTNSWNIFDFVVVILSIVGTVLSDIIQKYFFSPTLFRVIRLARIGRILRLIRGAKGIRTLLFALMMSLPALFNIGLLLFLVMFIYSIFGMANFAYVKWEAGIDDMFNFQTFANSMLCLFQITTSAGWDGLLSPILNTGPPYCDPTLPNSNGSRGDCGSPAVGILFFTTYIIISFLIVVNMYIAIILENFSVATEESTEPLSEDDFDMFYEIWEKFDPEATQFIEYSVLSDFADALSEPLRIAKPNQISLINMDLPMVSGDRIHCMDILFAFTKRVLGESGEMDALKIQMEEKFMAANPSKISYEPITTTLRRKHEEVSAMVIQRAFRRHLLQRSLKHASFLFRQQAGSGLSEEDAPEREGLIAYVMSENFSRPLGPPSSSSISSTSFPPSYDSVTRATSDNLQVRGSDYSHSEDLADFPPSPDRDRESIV
hERG potassium channel, sequence (Q12809 whole entry): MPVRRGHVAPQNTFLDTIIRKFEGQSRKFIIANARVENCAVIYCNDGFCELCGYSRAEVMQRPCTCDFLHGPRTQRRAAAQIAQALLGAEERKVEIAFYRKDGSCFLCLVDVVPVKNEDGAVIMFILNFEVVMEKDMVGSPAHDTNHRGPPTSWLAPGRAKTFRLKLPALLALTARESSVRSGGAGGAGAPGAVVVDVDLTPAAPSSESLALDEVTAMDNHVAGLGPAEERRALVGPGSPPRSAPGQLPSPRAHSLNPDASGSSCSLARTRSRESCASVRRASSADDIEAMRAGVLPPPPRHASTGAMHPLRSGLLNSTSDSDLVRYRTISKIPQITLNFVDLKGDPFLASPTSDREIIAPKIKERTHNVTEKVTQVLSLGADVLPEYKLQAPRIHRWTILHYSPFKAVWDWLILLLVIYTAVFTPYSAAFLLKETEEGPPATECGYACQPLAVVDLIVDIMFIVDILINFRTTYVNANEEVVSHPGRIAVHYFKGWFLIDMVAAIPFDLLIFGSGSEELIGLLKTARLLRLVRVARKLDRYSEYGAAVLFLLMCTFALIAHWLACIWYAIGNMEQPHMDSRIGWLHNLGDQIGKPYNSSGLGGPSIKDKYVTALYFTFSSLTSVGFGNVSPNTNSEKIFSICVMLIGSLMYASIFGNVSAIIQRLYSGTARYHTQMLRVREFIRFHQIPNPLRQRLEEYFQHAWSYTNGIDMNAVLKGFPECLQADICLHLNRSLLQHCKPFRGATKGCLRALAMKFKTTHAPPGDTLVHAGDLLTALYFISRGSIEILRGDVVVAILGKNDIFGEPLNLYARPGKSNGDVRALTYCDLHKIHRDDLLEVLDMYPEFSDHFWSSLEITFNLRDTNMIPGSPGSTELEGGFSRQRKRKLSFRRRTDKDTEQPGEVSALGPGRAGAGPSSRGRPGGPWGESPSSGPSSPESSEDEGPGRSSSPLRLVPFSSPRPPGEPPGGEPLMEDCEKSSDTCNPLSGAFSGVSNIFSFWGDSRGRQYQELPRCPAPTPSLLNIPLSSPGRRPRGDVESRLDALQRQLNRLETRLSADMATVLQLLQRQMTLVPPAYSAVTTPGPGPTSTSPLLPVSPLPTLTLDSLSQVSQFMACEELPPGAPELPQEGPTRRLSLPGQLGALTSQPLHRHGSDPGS

As for `O=C1CN(Cc2ccccc2)C(=O)c2cc(-c3ccc(C(F)(F)F)cc3)ccc2N1` [Compound X-8, 4-benzyl-7-(4-(trifluoromethyl)phenyl)-3,4-dihydro-1H-benzo[e][1,4]diazepine-2,5-dione], the results for the inhibition at 1 µM in data set [1] (setting [3]), in data set [1] (setting [4]) and in data set [2] were 50%, 50% and -12%, respectively. The compound further displayed a hERG on hERG potassium channel of under 10.

For `O=C1c2cc(-c3ccc(C(F)(F)F)cc3)ccc2OC[C@H]2CN(CC(F)F)CCN12` [II-22, (R)-2-(2,2-difluoroethyl)-8-(4-(trifluoromethyl)phenyl)-3,4,12,12a-tetrahydro-1H-benzo[f]pyrazino[2,1-c][1,4]oxazepin-6(2H)-one], the inhibition at 1 µM came out at 30% in data set [1] (setting [3]), 30% in data set [1] (setting [4]) and 3% in data set [2]. The compound further yielded a hERG on hERG potassium channel of 16.

For orientation: pIC50 means the negative decadic logarithm of the IC50, by convention in mol/L. For the compound `O=C1c2cc(-c3ccc(OC(F)(F)F)cc3)ccc2OCCN1Cc1ncccn1` [II-73, 4-(pyrimidin-2-ylmethyl)-7-(4-(trifluoromethoxy)phenyl)-3,4-dihydrobenzo[f][1,4]oxazepin-5(2H)-one], the inhibition at 1 µM in data set [1] (setting [3]) and in data set [1] (setting [4]) was 42% throughout. Also, the pIC50 in data set [2] (frequency of 10 Hz, read-out: IC50 block of hNav 1.1 peak INa) was under 4.00; in data set [2] (frequency of 25 Hz, read-out: IC50 block of hNav 1.1), 5.47.

In the case of `O=C1c2cc(-c3ccc(C(F)(F)F)cc3)ccc2OC[C@H]2CN(CC(F)(F)F)CCN12` [II-83, (R)-2-(2,2,2-trifluoroethyl)-8-(4-(trifluoromethyl)phenyl)-3,4,12,12a-tetrahydro-1H-benzo[f]pyrazino[2,1-c][1,4]oxazepin-6(2H)-one], the inhibition at 1 µM in data set [1] (setting [3]) was 31%; in data set [1] (setting [4]) it was 31%; in data set [2], -2%. The hERG at hERG potassium channel amounted to 21.

On to `O=C1c2cc(-c3ccc(Cl)cc3)ccc2OCCN1Cc1ncccn1` [II-88, 7-(4-chlorophenyl)-4-(pyrimidin-2-ylmethyl)-3,4-dihydrobenzo[f][1,4]oxazepin-5(2H)-one], for which the results for the inhibition at 1 µM in data set [1] (setting [3]), in data set [1] (setting [4]) and in data set [2] were 41%, 41% and -10%, respectively. In addition, the hERG at hERG potassium channel is reported as 26.

As to `CC(C)(C)c1ccc(-c2ccc3c(c2)C(=O)N(Cc2ncccn2)CCO3)cc1` [II-98, 7-(4-tert-butylphenyl)-4-(pyrimidin-2-ylmethyl)-3,4-dihydrobenzo[f][1,4]oxazepin-5(2H)-one], the inhibition at 1 µM in data set [1] (setting [3]) was 39%; in data set [1] (setting [4]), 39%; in data set [2] it was -1%. On hERG potassium channel, the hERG was under 10.

Consider `O=C1c2cc(-c3ccc(C(F)(F)F)cc3F)ccc2OCCN1Cc1ncccn1` [II-105, 7-(2-fluoro-4-(trifluoromethyl)phenyl)-4-(pyrimidin-2-ylmethyl)-3,4-dihydrobenzo[f][1,4]oxazepin-5(2H)-one], for which the figures for the inhibition at 1 µM in data set [1] (setting [3]), in data set [1] (setting [4]) and in data set [2] were 45%, 45% and -17%, respectively. In addition, the hERG at hERG potassium channel is under 10. Besides, the “inhibited (or reduced) the activity of the hERG potassium channel” value against hERG potassium channel (at 1 μM) is reported as under 10%.

For the compound `O=C1c2cc(-c3ccc(C(F)(F)F)cc3Cl)ccc2OCCN1Cc1ncccn1` [II-110, 7-(2-chloro-4-(trifluoromethyl)phenyl)-4-(pyrimidin-2-ylmethyl)-3,4-dihydrobenzo[f][1,4]oxazepin-5(2H)-one], the inhibition at 1 µM in data set [1] (setting [3]) was 35%; in data set [1] (setting [4]), 35%; in data set [2], -4%. The same compound registered a hERG at hERG potassium channel of 26.

Turning to `O=C1c2cc(-c3ccc(Cl)cc3F)ccc2OCCN1Cc1ncccn1` [II-117, 7-(4-chloro-2-fluorophenyl)-4-(pyrimidin-2-ylmethyl)-3,4-dihydrobenzo[f][1,4]oxazepin-5(2H)-one], the inhibition at 1 µM was 37% in data set [1] (setting [3]), 37% in data set [1] (setting [4]) and -11% in data set [2]. Further, the hERG on hERG potassium channel is under 10.

`O=C1c2cc(-c3ccc(C(F)(F)F)cc3)ccc2OCCN1Cc1cn2ccccc2n1` [II-129, 4-(imidazo[1,2-a]pyridin-2-ylmethyl)-7-(4-(trifluoromethyl)phenyl)-3,4-dihydrobenzo[f][1,4]oxazepin-5(2H)-one]: the inhibition at 1 µM worked out at 33% in data set [1] (setting [3]), 33% in data set [1] (setting [4]) and 8% in data set [2]. The same compound came in with a hERG on hERG potassium channel of 17.

In the case of `O=C(c1ncccn1)N1CCOc2ccc(-c3ccc(OC(F)(F)F)cc3)cc2C1` [III-1, pyrimidin-2-yl(7-(4-(trifluoromethoxy)phenyl)-2,3-dihydrobenzo[f][1,4]oxazepin-4(5H)-yl)methanone], the figures for the inhibition at 1 µM in data set [1] (setting [3]), in data set [1] (setting [4]) and in data set [2] were 33%, 33% and -1%, respectively. Moreover, the hERG on hERG potassium channel was under 10.

As for `O=C1c2cc(C#Cc3ccc(OC(F)(F)F)cc3)ccc2OCCN1Cc1ncccn1` [VIII-4, 4-(pyrimidin-2-ylmethyl)-7-((4-(trifluoromethoxy)phenyl)ethynyl)-3,4-dihydrobenzo[f][1,4]oxazepin-5(2H)-one], the inhibition at 1 µM stood at 61% in data set [1] (setting [3]), 61% in data set [1] (setting [4]) and 5% in data set [2]. The hERG on hERG potassium channel was 30.

Take `O=C1c2cc(C#Cc3ccc(C(F)(F)F)cc3)ccc2OCCN1Cc1ncccn1` [VIII-6, 4-(pyrimidin-2-ylmethyl)-7-((4-(trifluoromethyl)phenyl)ethynyl)-3,4-dihydrobenzo[f][1,4]oxazepin-5(2H)-one]: the inhibition at 1 µM in data set [1] (setting [3]) amounted to 38%; in data set [1] (setting [4]), 38%; in data set [2], 6%. The hERG on hERG potassium channel is recorded as under 10.
